Test results taken from paper PMC9870012 (Journal of Enzyme Inhibition and Medicinal Chemistry, 2023).

What was measured:
[1] = target: T1, human meprin α (Homo sapiens, UniProt Q16819); type: biochemical; details: for Ki: Ki(app) Meprin α, geometric mean of three independent experiments with standard deviation factor; for SF: selectivity factor (Ki(app) meprin β/Ki(app) meprin α): meprin α over meprin β
T1 sequence (Q16819 66-746): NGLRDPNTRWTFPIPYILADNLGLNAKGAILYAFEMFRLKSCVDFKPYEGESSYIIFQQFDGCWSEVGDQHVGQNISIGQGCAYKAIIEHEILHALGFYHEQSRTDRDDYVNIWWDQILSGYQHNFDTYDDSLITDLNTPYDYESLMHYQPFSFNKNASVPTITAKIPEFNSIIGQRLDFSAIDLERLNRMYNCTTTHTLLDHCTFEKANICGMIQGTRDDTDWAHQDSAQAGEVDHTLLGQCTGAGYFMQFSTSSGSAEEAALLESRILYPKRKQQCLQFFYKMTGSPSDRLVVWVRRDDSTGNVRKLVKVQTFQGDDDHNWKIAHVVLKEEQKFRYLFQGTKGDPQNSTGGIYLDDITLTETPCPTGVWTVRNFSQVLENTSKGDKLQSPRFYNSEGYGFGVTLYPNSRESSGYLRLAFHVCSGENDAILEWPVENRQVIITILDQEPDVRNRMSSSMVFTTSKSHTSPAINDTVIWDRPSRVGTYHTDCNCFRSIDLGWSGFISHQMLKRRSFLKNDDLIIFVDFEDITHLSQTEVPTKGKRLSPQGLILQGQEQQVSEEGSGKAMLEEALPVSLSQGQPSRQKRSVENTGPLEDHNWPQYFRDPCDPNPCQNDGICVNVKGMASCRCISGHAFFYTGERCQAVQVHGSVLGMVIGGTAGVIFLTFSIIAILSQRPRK

[2] = target: T2, human meprin β (Homo sapiens, UniProt Q16820); type: biochemical; details: for Ki: Ki(app) Meprin β, geometric mean of three independent experiments with standard deviation factor
T2 sequence (Q16820 62-701): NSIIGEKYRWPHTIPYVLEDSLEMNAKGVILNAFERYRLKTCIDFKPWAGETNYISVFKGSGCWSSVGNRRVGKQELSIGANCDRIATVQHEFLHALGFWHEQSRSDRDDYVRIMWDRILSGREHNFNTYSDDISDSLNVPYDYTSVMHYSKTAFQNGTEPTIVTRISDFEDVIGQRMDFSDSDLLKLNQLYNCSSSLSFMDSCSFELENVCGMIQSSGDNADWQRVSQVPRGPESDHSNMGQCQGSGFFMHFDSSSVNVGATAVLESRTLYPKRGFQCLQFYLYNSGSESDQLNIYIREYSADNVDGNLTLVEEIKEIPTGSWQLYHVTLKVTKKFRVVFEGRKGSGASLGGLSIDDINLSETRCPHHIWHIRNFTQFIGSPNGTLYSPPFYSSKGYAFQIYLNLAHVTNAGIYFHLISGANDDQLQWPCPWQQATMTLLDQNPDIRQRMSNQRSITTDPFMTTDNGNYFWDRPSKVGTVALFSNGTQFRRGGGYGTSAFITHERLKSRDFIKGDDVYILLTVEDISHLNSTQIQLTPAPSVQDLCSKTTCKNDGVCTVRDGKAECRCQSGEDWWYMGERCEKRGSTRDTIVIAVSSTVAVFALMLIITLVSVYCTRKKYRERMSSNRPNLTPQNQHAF

[3] = target: T3, MMP2 (Homo sapiens, UniProt P08253); assay: Off-target metalloprotease inhibition, MMP2; type: biochemical; details: for remaining activity at 10 µM: read-out: Residual activity MMP2
T3 sequence (P08253 110-660): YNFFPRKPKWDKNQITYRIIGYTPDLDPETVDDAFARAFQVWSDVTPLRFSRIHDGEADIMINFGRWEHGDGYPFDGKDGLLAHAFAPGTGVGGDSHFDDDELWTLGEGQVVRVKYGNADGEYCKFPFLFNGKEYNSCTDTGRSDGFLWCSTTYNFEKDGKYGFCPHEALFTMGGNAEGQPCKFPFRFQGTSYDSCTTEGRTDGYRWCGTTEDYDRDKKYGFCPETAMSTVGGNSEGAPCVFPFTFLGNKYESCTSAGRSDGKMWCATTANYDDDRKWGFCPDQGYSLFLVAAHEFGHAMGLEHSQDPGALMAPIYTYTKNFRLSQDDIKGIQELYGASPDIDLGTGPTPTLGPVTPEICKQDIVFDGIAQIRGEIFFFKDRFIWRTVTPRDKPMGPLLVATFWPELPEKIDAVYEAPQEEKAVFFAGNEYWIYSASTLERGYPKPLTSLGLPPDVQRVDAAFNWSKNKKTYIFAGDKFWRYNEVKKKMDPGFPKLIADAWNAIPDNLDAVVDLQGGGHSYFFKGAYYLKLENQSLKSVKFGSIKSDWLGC

[4] = target: MMP9 (Homo sapiens, UniProt P14780); assay: Off-target metalloprotease inhibition, MMP9; type: biochemical; details: read-out: Residual activity MMP9
[5] = target: MMP13 (Homo sapiens, UniProt P45452); assay: Off-target metalloprotease inhibition, MMP13; type: biochemical; details: read-out: Residual activity MMP13
[6] = target: T4, ADAM10 (Homo sapiens, UniProt O14672); assay: Off-target metalloprotease inhibition, ADAM10; type: biochemical; details: for remaining activity at 10 µM: read-out: Residual activity ADAM10
T4 sequence (O14672 214-748): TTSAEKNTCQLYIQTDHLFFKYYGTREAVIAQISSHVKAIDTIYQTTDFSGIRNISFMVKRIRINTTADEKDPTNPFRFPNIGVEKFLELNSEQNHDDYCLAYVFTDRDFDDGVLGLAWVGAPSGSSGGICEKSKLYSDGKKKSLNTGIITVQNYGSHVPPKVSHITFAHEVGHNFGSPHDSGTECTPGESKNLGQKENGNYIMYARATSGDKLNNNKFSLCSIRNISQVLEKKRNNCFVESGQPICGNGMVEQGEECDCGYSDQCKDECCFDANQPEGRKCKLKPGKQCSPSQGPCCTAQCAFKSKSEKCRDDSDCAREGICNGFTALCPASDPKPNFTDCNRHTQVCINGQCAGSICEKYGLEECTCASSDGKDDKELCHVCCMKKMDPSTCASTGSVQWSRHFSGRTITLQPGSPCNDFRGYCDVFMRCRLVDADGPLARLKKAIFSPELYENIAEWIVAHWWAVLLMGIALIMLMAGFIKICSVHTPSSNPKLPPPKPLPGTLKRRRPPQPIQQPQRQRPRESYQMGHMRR

[7] = target: ADAM17 (Homo sapiens, UniProt P78536); assay: Off-target metalloprotease inhibition, ADAM17; type: biochemical; details: for remaining activity at 10 µM: read-out: Residual activity ADAM17
[8] = Cell viability assay; type: cell-based; details: human, Hep-G2 cells
[9] = Cell viability assay; type: cell-based; details: human, SH-SY5Y cells

MMP9, sequence (P14780 107-707 limits assumed): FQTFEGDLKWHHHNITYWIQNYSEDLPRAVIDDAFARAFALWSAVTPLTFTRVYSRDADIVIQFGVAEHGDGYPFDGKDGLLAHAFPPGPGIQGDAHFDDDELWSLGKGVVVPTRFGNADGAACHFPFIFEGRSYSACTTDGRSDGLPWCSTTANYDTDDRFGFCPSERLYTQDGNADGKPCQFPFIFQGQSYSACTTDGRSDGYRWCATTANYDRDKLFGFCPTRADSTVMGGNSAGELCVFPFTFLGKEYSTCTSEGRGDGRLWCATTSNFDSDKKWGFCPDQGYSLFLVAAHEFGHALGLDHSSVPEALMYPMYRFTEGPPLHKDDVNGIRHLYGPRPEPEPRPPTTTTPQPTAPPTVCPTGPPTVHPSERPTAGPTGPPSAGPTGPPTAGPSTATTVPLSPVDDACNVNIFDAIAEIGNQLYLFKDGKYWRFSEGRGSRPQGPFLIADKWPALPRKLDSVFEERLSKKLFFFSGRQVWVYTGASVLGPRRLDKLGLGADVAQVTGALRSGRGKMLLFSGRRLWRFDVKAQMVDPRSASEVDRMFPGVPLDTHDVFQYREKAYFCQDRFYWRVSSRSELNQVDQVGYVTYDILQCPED
ADAM17, sequence (P78536 215-824): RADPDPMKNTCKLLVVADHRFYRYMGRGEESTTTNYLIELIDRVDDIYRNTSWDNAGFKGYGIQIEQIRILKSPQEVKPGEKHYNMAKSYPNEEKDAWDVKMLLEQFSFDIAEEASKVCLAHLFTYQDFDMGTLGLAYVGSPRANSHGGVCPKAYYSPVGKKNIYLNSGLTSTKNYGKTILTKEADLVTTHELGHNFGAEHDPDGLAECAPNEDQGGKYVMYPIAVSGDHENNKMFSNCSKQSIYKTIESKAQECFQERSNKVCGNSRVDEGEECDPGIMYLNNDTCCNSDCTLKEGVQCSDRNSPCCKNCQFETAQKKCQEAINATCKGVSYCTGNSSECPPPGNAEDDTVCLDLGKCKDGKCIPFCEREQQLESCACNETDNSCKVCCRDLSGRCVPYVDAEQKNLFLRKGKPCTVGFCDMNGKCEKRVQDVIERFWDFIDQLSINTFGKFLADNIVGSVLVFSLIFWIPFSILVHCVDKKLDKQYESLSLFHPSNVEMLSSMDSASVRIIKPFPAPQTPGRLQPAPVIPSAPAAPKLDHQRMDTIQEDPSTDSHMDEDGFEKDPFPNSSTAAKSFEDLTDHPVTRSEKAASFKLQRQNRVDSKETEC

Ki [1] [nM]	SF: selectivity factor (Ki(app) meprin β/Ki(app) meprin α) [1]	Ki [2] [nM]	remaining activity at 10 µM [3] [%]	remaining activity at 10 µM [4] [%]	remaining activity at 10 µM [5] [%]	remaining activity at 10 µM [6] [%]	remaining activity at 10 µM [7] [%]	IC50 [6] [nM]	IC50 [7] [nM]	fold increase in potency against meprin β ([2]; compared to 21e) [fold]	activity against meprin β dropped by factor ([2]; compared to 21i)	increased inhibition of meprin β by factor ([2]; in comparison to the N-phenyl pyrazole 21b)	IC50 [3] [nM]	SMILES	viability at 24 h, 30 µM [8] [%]	viability at 24 h, 30 µM [9] [%]
0.6				63		62	57	12000	9600					O=C(Cc1c(-c2ccc3c(c2)OCO3)n[nH]c1-c1ccc2c(c1)OCO2)NO [16a, 2-[3,5-Bis(1,3-benzodioxol-5-yl)-1H-pyrazol-4-yl]ethanehydroxamic acid]		
0.4	24	9.4	85	80	86	91	67			30				O=C(Cc1c(-c2ccccc2)nn(Cc2ccc(C(=O)O)cc2)c1-c1ccccc1)NO [21h, 4-[[4-[2-(Hydroxyamino)-2-oxo-ethyl]-3,5-diphenyl-pyrazol-1-yl]methyl]benzoic acid]	103	88
21	0.7	14.5												O=C(Cc1c(-c2cccc(C(=O)O)c2)[nH]nc1[C@H]1CC[C@@H](C(=O)O)CC1)NO [16m, 3-[3-(Cis-4-Carboxycyclohexyl)-4-[2-(hydroxyamino)-2-oxo-ethyl]-1H-pyrazol-5-yl]benzoic acid]		
0.6	508		77	74	78	69	21		2300					O=C(Cc1c(-c2ccccc2)nn(Cc2ccc3c(c2)OCO3)c1-c1ccccc1)NO [21f, 2-[1-(1,3-Benzodioxol-5-ylmethyl)-3,5-diphenyl-pyrazol-4-yl]ethanehydroxamic acid]	103	88
4	53	212										3		O=C(Cc1c(-c2ccccc2)nn(-c2cccc(C(=O)O)c2)c1-c1ccccc1)NO [21c, 3-[4-[2-(Hydroxyamino)-2-oxo-ethyl]-3,5-diphenyl-pyrazol-1-yl]benzoic acid]		
5	87	437												Cn1nc(-c2ccccc2)c(CC(=O)NO)c1-c1ccccc1 [21a, 2-(1-Methyl-3,5-diphenyl-pyrazol-4-yl)ethanehydroxamic acid]		

Further lines, the compound ahead of its results:

SMILES	Ki [1] [nM]	SF: selectivity factor (Ki(app) meprin β/Ki(app) meprin α) [1]	Ki [2] [nM]	remaining activity at 10 µM [3] [%]	remaining activity at 10 µM [4] [%]	remaining activity at 10 µM [5] [%]	remaining activity at 10 µM [6] [%]	remaining activity at 10 µM [7] [%]	IC50 [6] [nM]	IC50 [7] [nM]	fold increase in potency against meprin β ([2]; compared to 21e) [fold]	activity against meprin β dropped by factor ([2]; compared to 21i)	increased inhibition of meprin β by factor ([2]; in comparison to the N-phenyl pyrazole 21b)	IC50 [3] [nM]	viability at 24 h, 30 µM [8] [%]	viability at 24 h, 30 µM [9] [%]
O=C(Cc1c(-c2cc(F)c(O)c(Cl)c2)n[nH]c1-c1ccccc1)NO [14m, 2-[3-(3-Chloro-5-fluoro-4-hydroxyphenyl)-5-phenyl-1H-pyrazol-4-yl]ethanehydroxamic acid]	0.1	3	0.4	66	86	88	104	68							103	86
O=C(CCc1c(-c2ccccc2)nn(Cc2ccc(Cl)c(O)c2F)c1-c1ccccc1)NO [compound 22, 3-[1-[(4-Chloro-2-fluoro-3-hydroxy-phenyl)methyl]-3,5-diphenyl-pyrazol-4-yl]propane-hydroxamic acid]		7892		102	100	98	117	90				~120			100	98
O=C(Cc1c([C@H]2CCCC[C@H]2C(=O)O)n[nH]c1-c1ccccc1)NO (relative stereo) [14q, Cis-2-[4-[2-(hydroxyamino)-2-oxo-ethyl]-5-phenyl-1H-pyrazol-3-yl]cyclohexanecarboxylic acid]	0.3	127	32.6													
O=C(Cc1c(-c2ccc3c(c2)OCO3)n[nH]c1-c1ccccc1)NO [14f, 2-[3-(1,3-Benzodioxol-5-yl)-5-phenyl-1H-pyrazol-4-yl]ethanehydroxamic acid]	1.1	99		41	72	71	59	51	13900	7400				5300	96	90
COc1cccc(-c2n[nH]c(-c3ccccc3)c2CC(=O)NO)c1 [14d, 2-[3-(3-Methoxyphenyl)-5-phenyl-1H-pyrazol-4-yl]ethanehydroxamic acid]	1.1	105		78	80	85	68	52		11600					104	84
COc1ccc(-c2n[nH]c(-c3ccccc3)c2CC(=O)NO)cc1OC [14g, 2-[3-(3,4-Dimethoxyphenyl)-5-phenyl-1H-pyrazol-4-yl]ethanehydroxamic acid]	0.7	117		83	90	101	87	65							99	85
